Assay results from ChEMBL document CHEMBL3991601, “The target landscape of clinical kinase drugs” (Science, 2017).
Active and inactive are the calls of the source. Cut-off read from the data, not from the text of the source, for most assays here: actives have a measured Kd and inactives only a lower limit.

Experiments:
[1] = target: Serine/threonine-protein kinase B-raf (Homo sapiens, UniProt P15056)
Ephrin type-A receptor 4 = Ephrin type-A receptor 4 (Homo sapiens, UniProt P54764)
[2] = target: T1, Interleukin-1 receptor-associated kinase 4 (Homo sapiens, UniProt Q9NWZ3)
T1 sequence (Q9NWZ3 whole entry): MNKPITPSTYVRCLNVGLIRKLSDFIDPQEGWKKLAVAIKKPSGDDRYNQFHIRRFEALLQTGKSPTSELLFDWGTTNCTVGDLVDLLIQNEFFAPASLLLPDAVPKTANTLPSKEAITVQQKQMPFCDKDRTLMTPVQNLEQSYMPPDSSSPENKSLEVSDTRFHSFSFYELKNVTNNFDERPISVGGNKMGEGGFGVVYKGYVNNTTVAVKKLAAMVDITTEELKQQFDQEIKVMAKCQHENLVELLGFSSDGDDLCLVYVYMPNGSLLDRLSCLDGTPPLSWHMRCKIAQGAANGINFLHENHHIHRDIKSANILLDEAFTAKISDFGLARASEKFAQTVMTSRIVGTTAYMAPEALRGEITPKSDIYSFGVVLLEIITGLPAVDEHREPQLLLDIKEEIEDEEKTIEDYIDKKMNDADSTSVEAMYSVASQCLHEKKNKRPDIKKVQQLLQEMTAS

[3] = target: T2, Serine/threonine-protein kinase Nek1 (Homo sapiens, UniProt Q96PY6)
T2 sequence (Q96PY6 whole entry): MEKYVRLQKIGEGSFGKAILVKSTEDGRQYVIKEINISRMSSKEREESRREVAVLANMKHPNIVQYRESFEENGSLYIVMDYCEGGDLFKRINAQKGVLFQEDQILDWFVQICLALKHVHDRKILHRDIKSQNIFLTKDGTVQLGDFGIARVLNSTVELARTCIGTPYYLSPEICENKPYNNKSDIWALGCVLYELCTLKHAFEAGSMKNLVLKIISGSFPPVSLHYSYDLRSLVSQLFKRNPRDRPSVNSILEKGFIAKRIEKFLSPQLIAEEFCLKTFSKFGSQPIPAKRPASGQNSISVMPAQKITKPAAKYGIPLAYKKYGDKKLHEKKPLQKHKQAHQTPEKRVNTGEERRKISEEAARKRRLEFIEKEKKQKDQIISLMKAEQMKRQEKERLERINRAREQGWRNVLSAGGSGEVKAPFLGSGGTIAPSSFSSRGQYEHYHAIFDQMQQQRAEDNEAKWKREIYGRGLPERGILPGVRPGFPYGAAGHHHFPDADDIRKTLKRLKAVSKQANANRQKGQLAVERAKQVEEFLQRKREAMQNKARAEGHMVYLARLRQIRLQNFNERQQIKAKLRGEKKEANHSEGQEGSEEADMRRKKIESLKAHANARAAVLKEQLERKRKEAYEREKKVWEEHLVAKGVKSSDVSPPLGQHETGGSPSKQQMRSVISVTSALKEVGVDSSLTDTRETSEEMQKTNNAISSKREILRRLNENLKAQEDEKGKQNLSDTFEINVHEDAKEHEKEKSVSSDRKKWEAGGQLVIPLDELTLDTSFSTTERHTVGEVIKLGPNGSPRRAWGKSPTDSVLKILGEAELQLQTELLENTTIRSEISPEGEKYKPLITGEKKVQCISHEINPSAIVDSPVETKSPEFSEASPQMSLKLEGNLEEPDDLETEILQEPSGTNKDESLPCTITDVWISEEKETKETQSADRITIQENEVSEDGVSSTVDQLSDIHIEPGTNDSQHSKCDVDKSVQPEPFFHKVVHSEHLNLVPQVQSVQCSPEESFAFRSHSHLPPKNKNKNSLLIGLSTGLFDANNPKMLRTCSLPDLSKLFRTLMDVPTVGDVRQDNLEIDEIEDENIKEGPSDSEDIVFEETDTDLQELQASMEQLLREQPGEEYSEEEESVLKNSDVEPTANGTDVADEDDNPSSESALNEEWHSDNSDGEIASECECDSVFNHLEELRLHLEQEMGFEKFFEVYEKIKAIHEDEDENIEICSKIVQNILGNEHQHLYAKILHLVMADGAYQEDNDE

[4] = target: Tyrosine-protein kinase SYK (Homo sapiens, UniProt P43405)
[5] = target: Tyrosine-protein kinase ABL1 (Homo sapiens, UniProt P00519)
[6] = target: Cyclin-dependent kinase 3 (Homo sapiens, UniProt Q00526)
[7] = target: T3, Serine/threonine-protein kinase Chk1 (Homo sapiens, UniProt O14757)
T3 sequence (O14757 whole entry): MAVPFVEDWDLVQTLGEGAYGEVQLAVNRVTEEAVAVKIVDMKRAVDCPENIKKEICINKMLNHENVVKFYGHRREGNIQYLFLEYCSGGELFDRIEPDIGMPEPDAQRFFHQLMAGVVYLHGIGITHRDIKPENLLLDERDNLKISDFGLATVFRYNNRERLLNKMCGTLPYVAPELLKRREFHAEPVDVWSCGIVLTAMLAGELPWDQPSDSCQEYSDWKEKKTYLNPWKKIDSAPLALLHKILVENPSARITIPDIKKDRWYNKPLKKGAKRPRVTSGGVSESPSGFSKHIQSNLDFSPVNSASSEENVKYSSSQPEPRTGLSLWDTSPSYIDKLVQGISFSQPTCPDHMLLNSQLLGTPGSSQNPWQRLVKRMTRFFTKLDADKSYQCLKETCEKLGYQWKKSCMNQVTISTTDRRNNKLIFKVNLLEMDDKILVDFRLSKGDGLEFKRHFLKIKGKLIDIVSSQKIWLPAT

[8] = target: Platelet-derived growth factor receptor beta (Homo sapiens, UniProt P09619)
[9] = target: Serine/threonine-protein kinase pim-1 (Homo sapiens, UniProt P11309)
[10] = target: Rho-associated protein kinase 1 (Homo sapiens, UniProt Q13464)
Note: in the data inactive means no Kd found up to 30 µM.

Serine/threonine-protein kinase pim-1, sequence (P11309 whole entry): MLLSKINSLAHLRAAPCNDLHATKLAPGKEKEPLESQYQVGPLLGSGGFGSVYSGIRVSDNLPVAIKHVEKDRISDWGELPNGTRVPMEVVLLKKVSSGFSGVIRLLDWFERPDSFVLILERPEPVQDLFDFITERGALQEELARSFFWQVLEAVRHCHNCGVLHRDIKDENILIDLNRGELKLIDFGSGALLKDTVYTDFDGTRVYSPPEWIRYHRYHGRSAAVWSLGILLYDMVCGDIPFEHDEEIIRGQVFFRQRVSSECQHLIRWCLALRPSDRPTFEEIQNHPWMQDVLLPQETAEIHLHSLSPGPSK
Platelet-derived growth factor receptor beta, sequence (P09619 whole entry): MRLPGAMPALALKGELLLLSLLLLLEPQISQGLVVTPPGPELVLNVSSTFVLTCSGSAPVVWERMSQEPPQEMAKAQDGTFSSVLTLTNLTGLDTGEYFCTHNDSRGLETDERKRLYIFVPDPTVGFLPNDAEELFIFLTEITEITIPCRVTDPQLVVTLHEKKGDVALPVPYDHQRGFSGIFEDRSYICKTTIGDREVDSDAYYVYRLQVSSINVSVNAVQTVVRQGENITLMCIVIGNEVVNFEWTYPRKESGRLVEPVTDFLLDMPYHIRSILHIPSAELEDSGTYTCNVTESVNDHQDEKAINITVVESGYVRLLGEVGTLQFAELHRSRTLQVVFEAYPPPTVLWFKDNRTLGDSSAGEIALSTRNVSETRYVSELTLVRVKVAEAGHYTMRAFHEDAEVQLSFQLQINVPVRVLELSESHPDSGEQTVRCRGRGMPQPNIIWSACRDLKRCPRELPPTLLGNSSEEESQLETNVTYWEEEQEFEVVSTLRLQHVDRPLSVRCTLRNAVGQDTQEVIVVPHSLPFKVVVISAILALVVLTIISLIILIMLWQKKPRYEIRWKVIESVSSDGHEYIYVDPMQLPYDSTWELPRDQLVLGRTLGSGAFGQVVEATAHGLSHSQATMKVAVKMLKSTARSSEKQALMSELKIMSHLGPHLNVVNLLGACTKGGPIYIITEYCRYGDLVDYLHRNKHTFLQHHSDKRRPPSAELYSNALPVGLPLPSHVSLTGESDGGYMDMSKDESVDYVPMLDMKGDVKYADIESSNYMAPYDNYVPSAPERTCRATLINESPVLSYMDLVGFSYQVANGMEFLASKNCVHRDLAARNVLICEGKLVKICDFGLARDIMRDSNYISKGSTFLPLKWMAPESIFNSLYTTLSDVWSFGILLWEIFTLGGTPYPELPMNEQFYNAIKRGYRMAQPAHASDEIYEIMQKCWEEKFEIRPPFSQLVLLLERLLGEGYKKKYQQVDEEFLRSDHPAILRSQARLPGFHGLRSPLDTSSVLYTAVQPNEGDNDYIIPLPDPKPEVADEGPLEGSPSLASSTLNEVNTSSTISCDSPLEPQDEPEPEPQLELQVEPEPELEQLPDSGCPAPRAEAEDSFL
Rho-associated protein kinase 1, sequence (Q13464 whole entry): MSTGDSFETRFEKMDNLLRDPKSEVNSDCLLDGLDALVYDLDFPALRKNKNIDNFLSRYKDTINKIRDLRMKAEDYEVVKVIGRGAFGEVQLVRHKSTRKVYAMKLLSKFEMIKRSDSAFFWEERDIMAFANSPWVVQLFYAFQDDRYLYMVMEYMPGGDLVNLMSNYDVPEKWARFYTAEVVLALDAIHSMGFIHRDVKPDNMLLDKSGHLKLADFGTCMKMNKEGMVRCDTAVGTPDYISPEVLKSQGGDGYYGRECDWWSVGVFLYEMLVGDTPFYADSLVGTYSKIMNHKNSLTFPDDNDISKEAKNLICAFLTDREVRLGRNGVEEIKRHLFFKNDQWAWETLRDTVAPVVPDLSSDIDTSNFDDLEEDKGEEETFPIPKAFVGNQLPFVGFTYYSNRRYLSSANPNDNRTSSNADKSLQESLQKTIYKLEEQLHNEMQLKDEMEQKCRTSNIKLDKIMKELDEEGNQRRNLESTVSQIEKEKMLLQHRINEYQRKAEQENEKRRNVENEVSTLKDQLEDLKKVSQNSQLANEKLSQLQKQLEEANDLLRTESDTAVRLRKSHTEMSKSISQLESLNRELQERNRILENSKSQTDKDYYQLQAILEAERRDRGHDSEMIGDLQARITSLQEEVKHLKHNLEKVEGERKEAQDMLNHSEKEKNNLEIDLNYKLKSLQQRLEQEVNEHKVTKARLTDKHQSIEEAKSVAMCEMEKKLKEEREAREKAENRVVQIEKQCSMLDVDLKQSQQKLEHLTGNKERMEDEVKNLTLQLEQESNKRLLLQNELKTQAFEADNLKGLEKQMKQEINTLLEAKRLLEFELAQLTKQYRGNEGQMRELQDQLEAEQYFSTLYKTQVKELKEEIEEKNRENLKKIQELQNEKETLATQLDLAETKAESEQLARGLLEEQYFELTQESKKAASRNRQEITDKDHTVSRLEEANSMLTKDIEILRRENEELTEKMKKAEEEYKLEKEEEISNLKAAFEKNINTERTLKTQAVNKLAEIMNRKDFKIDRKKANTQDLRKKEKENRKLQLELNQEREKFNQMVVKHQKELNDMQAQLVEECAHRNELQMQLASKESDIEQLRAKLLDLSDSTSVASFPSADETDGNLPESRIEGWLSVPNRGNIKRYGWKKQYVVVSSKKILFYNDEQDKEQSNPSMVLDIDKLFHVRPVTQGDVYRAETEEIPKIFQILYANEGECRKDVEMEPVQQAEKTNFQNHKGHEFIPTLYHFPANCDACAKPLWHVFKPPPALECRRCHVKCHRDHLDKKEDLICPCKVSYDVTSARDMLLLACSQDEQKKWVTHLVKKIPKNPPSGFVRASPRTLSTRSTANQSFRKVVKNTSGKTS
Cyclin-dependent kinase 3, sequence (Q00526 whole entry): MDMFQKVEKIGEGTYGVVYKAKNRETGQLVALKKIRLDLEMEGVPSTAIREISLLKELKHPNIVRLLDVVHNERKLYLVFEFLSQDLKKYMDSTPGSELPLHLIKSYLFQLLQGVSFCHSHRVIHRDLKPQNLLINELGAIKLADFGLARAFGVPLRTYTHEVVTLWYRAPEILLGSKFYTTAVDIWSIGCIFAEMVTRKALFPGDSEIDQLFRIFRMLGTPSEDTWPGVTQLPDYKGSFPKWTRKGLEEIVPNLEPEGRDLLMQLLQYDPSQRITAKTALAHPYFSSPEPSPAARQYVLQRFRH
Ephrin type-A receptor 4, sequence (P54764 whole entry): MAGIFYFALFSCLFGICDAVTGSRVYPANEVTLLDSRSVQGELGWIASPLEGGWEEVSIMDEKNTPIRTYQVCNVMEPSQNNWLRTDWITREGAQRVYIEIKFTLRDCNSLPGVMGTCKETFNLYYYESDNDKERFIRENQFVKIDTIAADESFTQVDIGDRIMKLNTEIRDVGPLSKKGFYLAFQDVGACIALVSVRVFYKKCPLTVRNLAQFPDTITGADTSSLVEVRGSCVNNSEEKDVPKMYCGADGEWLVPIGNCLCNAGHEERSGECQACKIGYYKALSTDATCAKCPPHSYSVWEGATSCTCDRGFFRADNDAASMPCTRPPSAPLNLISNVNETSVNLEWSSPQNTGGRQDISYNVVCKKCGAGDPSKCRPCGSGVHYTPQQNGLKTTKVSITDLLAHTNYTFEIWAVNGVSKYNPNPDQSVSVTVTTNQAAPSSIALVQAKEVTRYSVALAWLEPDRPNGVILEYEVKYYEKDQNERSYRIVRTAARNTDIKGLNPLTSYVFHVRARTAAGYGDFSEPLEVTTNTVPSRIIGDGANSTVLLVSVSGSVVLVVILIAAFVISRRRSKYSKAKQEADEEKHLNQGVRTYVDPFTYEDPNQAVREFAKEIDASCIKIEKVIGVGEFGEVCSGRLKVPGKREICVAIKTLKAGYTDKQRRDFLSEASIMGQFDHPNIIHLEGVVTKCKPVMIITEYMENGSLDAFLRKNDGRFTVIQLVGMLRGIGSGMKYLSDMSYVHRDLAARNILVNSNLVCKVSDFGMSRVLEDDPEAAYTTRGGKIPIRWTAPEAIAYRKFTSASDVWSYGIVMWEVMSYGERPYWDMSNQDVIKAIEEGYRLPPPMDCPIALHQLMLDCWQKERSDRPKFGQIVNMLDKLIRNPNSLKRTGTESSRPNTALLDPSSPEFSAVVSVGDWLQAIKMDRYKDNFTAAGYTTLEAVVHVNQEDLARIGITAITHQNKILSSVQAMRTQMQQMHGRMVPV
Serine/threonine-protein kinase B-raf, sequence (P15056 whole entry): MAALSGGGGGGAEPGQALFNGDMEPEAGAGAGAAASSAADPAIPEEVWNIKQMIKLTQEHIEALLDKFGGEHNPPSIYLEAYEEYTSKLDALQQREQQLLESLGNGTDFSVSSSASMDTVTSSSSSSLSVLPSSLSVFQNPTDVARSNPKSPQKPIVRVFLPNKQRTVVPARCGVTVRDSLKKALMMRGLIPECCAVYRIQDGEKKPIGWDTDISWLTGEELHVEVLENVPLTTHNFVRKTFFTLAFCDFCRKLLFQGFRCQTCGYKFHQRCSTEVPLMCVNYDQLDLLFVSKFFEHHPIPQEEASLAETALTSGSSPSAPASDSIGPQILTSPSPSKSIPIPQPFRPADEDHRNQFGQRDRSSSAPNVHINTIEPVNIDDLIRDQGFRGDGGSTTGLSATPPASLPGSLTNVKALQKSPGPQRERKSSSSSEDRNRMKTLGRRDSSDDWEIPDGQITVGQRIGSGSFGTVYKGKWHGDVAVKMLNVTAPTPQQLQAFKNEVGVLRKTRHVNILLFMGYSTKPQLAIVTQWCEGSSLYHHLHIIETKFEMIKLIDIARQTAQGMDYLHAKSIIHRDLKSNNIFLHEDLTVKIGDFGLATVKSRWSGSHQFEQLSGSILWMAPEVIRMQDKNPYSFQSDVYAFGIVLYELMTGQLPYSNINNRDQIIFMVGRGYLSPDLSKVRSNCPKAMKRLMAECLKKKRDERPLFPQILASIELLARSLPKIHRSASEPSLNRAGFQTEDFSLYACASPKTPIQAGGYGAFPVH

CCc1cnn2c(NCc3ccc[n+]([O-])c3)cc(N3CCCC[C@H]3CCO)nc12 [DINACICLIB]
Kd [1]: > 30 µM (inactive) | Kd (Ephrin type-A receptor 4): > 30 µM (inactive) | Kd [2]: > 30 µM (inactive) | Kd [3]: > 30 µM (inactive) | Kd [4]: > 30 µM (inactive)

CC(C)Nc1cc(-c2c[nH]c(C(=O)N[C@H](CO)c3cccc(Cl)c3)c2)c(Cl)cn1 [ULIXERTINIB]
Kd [5]: > 30 µM (inactive) | Kd [1]: > 30 µM (inactive) | Kd [6]: > 30 µM (inactive) | Kd [7]: > 30 µM (inactive) | Kd (Ephrin type-A receptor 4): > 30 µM (inactive) | Kd [2]: > 30 µM (inactive) | Kd [3]: > 30 µM (inactive) | Kd [8]: > 30 µM (inactive) | Kd [9]: > 30 µM (inactive) | Kd [4]: > 30 µM (inactive)

COc1cc2nccc(Oc3ccc(NC(=O)NC4CC4)c(Cl)c3)c2cc1C(N)=O [LENVATINIB]
Kd [7]: > 30 µM (inactive) | Kd (Ephrin type-A receptor 4): > 30 µM (inactive) | Kd [2]: > 30 µM (inactive) | Kd [3]: > 30 µM (inactive) | Kd [8]: 0.316 µM (active) | Kd [9]: > 30 µM (inactive) | Kd [10]: > 30 µM (inactive) | Kd [4]: > 30 µM (inactive)

OCCn1cc(-c2cnc3nnn(Cc4ccc5ncccc5c4)c3n2)cn1 [PF-04217903]
Kd [1]: > 30 µM (inactive) | Kd [6]: > 30 µM (inactive) | Kd (Ephrin type-A receptor 4): > 30 µM (inactive) | Kd [2]: > 30 µM (inactive) | Kd [3]: > 30 µM (inactive) | Kd [4]: > 30 µM (inactive)

COC(=O)N[C@@H](C)CNc1nccc(-c2cn(C(C)C)nc2-c2cc(Cl)cc(NS(C)(=O)=O)c2F)n1 [ENCORAFENIB]
Kd [5]: > 30 µM (inactive) | Kd [6]: > 30 µM (inactive) | Kd [7]: > 30 µM (inactive) | Kd (Ephrin type-A receptor 4): > 30 µM (inactive) | Kd [2]: > 30 µM (inactive) | Kd [3]: > 30 µM (inactive) | Kd [8]: > 30 µM (inactive) | Kd [9]: > 30 µM (inactive) | Kd [10]: > 30 µM (inactive) | Kd [4]: > 30 µM (inactive)

O=C(Nc1ccc(-c2ccnc(Nc3ccc(N4CCOCC4)cc3)n2)cc1)C1CCCN1 (stereo not drawn) [XL-019]
Kd [5]: > 30 µM (inactive) | Kd [1]: > 30 µM (inactive) | Kd [6]: > 30 µM (inactive) | Kd [7]: > 30 µM (inactive) | Kd (Ephrin type-A receptor 4): > 30 µM (inactive) | Kd [2]: > 30 µM (inactive) | Kd [3]: > 30 µM (inactive) | Kd [8]: 1.12 µM (active) | Kd [9]: > 30 µM (inactive) | Kd [4]: > 30 µM (inactive)

Cc1cc(Nc2cc(N3CCN(C)CC3)nc(/C=C/c3ccccc3)n2)n[nH]1 [ENMD-2076]
Kd [1]: > 30 µM (inactive) | Kd [6]: > 30 µM (inactive) | Kd (Ephrin type-A receptor 4): > 30 µM (inactive) | Kd [3]: > 30 µM (inactive)

N[C@@H]1CCCN(c2c(/C=C3\SC(=O)NC3=O)cccc2-c2ccccc2)C1
Kd [5]: > 30 µM (inactive) | Kd [1]: > 30 µM (inactive) | Kd [6]: > 30 µM (inactive) | Kd [7]: > 30 µM (inactive) | Kd (Ephrin type-A receptor 4): > 30 µM (inactive) | Kd [2]: > 30 µM (inactive) | Kd [3]: > 30 µM (inactive) | Kd [8]: > 30 µM (inactive) | Kd [10]: > 30 µM (inactive) | Kd [4]: > 30 µM (inactive)

COc1cc(CCc2cc(NC(=O)c3ccc(N4C[C@@H](C)N[C@@H](C)C4)cc3)n[nH]2)cc(OC)c1 [AZD-4547]
Kd [5]: > 30 µM (inactive) | Kd [1]: > 30 µM (inactive) | Kd [6]: > 30 µM (inactive) | Kd [7]: > 30 µM (inactive) | Kd (Ephrin type-A receptor 4): > 30 µM (inactive) | Kd [2]: > 30 µM (inactive) | Kd [3]: > 30 µM (inactive) | Kd [8]: 0.288 µM (active) | Kd [9]: > 30 µM (inactive) | Kd [4]: > 30 µM (inactive)
